# Assay results reported in patent US5420135A, “Substituted quinoline derivatives” (Smith Kline & French Laboratories Limited, priority 1989, dated 1995).
# Tested on: isolated rat osteoclasts
# Experiment: Bone resorption by isolated rat osteoclasts on cortical bone slices
# Assay type: cell-based
# Conditions: Osteoclast, 18 hours, Mean ± SEM, n = 12, control 100 ± 27
# Procedure: Bone resorption was measured by the actions of isolated rat osteoclasts on cortical bone slices (Zaidi et al. Quarterly Journal of Experimental Physiology 1988 73:471-485). Newborn Wistar rats were killed by decapitation and their femora and tibiae removed. Osteoclasts were mechanically disaggregated by curetting the bones into medium followed by agitation with a pipette. Osteoclasts were separated from other cells by sedimentation onto bone slices (15 minutes, 37°) after which the slices were removed and gently washed. The bone slices were then incubated in the presence of test compounds (37°, 10% humidified CO2, 18 hours) and fixed with glutaraldehyde. The degree of bone resorption was then assessed by the area of erosions produced by the osteoclasts using scanning electron microscopy. Data were meaned from measurements of 6 bone slices in each of two independent experiments.
# Test compounds were dissolved in ethanol which was also added to control incubations (1%) in the absence of compound.
smiles,measurement,setting,value
"Cc1ccccc1-n1nnc2cnc3ccccc3c21 [Example 2, 1-(2-Methylphenyl)triazolo[4,5-c]quinoline]",activity at 10 µM,Conc. 10 μM,49 ± 20%
same,activity at 100 µM,Conc. 100 μM,0%
